Measured values as given in the supplement of paper PMC10307832.

Tests used:
Assay in all cases: relative viability (nuclei count vs DMSO), 5 days (fraction); higher = more cells survive
[1] = compound: C=CC(=O)Nc1cc(-n2c(=O)ccc3cnc4ccc(-c5ccc(NS(C)(=O)=O)cc5)cc4c32)ccc1C [BMX-IN-1] + Nc1ncn([C@H]2C[C@H](O)[C@@H](CO)O2)c(=O)n1 [Decitabine] (partner 2 µM)
Method in brief: (§1)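 Relative viability divides the nuclei count in treated wells by that in vehicle wells. Lung cancer cell lines were seeded in 1536-well plates, dosed by pin tool the next day, and fixed and stained after 5 days in one step with final 0.05% Triton X-100, 1% formaldehyde and 1 ug/ml Hoechst. Dosing was a single drug or a fixed anchor-drug dose plus five library-drug doses (not always all listed) in √10 steps, and values are medians of duplicate plates imaged at 4×.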

[2] = compound: C=CCc1cccc(/C=N/NC(=O)CN2CCN(Cc3ccccc3)CC2)c1O [PAC-1] + CCNC(=O)c1noc(-c2cc(C(C)C)c(O)cc2O)c1-c1ccc(CN2CCOCC2)cc1 [Luminespib] (partner 0.01 µM)
Method in brief: as §1

[3] = compound: C=CC(=O)N1CCC[C@@H](n2nc(-c3ccc(Oc4ccccc4)cc3)c3c(N)ncnc32)C1 [Ibrutinib] + C[C@@H](Oc1cc(-c2cnn(C3CCNCC3)c2)cnc1N)c1c(Cl)ccc(F)c1Cl [Crizotinib] (partner 1 µM)
Method in brief: as §1

[4] = compound: C=CC(=O)N1CCC[C@@H](n2nc(-c3ccc(Oc4ccccc4)cc3)c3c(N)ncnc32)C1 [Ibrutinib] + CC(C)C[C@H](NC(=O)[C@H](Cc1ccccc1)NC(=O)c1cnccn1)B(O)O [Bortezomib] (partner 0.002 µM)
Method in brief: as §1

NCI-H1793
relative viability ([1]; first compound 0.02 µM): 0.45
relative viability ([1]; first compound 0.2 µM): 0.535
relative viability ([1]; first compound 0.6325 µM): 0.471
relative viability ([1]; first compound 2 µM): 0.589
relative viability ([2]; first compound 0.02 µM): 0.207
relative viability ([2]; first compound 0.06325 µM): 0.216
relative viability ([2]; first compound 0.2 µM): 0.164
relative viability ([2]; first compound 2 µM): 0.17

NCI-H358
relative viability ([1]; first compound 0.02 µM): 0.181
relative viability ([1]; first compound 0.2 µM): 0.2
relative viability ([1]; first compound 0.6325 µM): 0.239
relative viability ([1]; first compound 2 µM): 0.214
relative viability ([2]; first compound 0.02 µM): 0.411
relative viability ([2]; first compound 0.06325 µM): 0.404
relative viability ([2]; first compound 0.2 µM): 0.32
relative viability ([2]; first compound 2 µM): 0.265
relative viability ([3]; first compound 0.005 µM): 0.706
relative viability ([3]; first compound 0.01581 µM): 0.45
relative viability ([3]; first compound 0.05 µM): 0.401
relative viability ([3]; first compound 0.1581 µM): 0.682
relative viability ([3]; first compound 0.5 µM): 0.303

SW 900
relative viability ([1]; first compound 0.02 µM): 0.564
relative viability ([1]; first compound 0.2 µM): 0.51
relative viability ([1]; first compound 0.6325 µM): 0.461
relative viability ([1]; first compound 2 µM): 0.539
relative viability ([2]; first compound 0.02 µM): 0.173
relative viability ([2]; first compound 0.06325 µM): 0.157
relative viability ([2]; first compound 0.2 µM): 0.16
relative viability ([2]; first compound 2 µM): 0.214

NCI-H1299
relative viability ([3]; first compound 0.005 µM): 1
relative viability ([3]; first compound 0.01581 µM): 0.897
relative viability ([3]; first compound 0.05 µM): 0.957
relative viability ([3]; first compound 0.1581 µM): 0.977
relative viability ([3]; first compound 0.5 µM): 0.965
relative viability ([4]; first compound 0.005 µM): 1.02
relative viability ([4]; first compound 0.01581 µM): 1
relative viability ([4]; first compound 0.05 µM): 0.995
relative viability ([4]; first compound 0.1581 µM): 1.02
relative viability ([4]; first compound 0.5 µM): 1.04

EBC-1
relative viability ([3]; first compound 0.005 µM): 0.199
relative viability ([3]; first compound 0.01581 µM): 0.21
relative viability ([3]; first compound 0.05 µM): 0.205
relative viability ([3]; first compound 0.1581 µM): 0.188
relative viability ([3]; first compound 0.5 µM): 0.162
relative viability ([4]; first compound 0.005 µM): 0.693
relative viability ([4]; first compound 0.01581 µM): 0.524
relative viability ([4]; first compound 0.05 µM): 0.555
relative viability ([4]; first compound 0.1581 µM): 0.668
relative viability ([4]; first compound 0.5 µM): 0.486

HCC-366
relative viability ([1]; first compound 0.02 µM): 0.356
relative viability ([1]; first compound 0.2 µM): 0.378
relative viability ([1]; first compound 0.6325 µM): 0.416
relative viability ([1]; first compound 2 µM): 0.39
relative viability ([3]; first compound 0.005 µM): 0.623
relative viability ([3]; first compound 0.01581 µM): 0.525
relative viability ([3]; first compound 0.05 µM): 0.506
relative viability ([3]; first compound 0.1581 µM): 0.45
relative viability ([3]; first compound 0.5 µM): 0.514
relative viability ([4]; first compound 0.005 µM): 1.03
relative viability ([4]; first compound 0.01581 µM): 0.977
relative viability ([4]; first compound 0.05 µM): 1.09
relative viability ([4]; first compound 0.1581 µM): 1.01
relative viability ([4]; first compound 0.5 µM): 1.07

NCI-H1944
relative viability ([1]; first compound 0.02 µM): 0.459
relative viability ([1]; first compound 0.2 µM): 0.402
relative viability ([1]; first compound 0.6325 µM): 0.481
relative viability ([1]; first compound 2 µM): 0.426
relative viability ([2]; first compound 0.02 µM): 0.766
relative viability ([2]; first compound 0.06325 µM): 0.685
relative viability ([2]; first compound 0.2 µM): 0.765
relative viability ([2]; first compound 2 µM): 0.701
relative viability ([3]; first compound 0.005 µM): 0.99
relative viability ([3]; first compound 0.01581 µM): 0.88
relative viability ([3]; first compound 0.05 µM): 0.963
relative viability ([3]; first compound 0.5 µM): 0.782

IA-LM
relative viability ([3]; first compound 0.005 µM): 0.75
relative viability ([3]; first compound 0.01581 µM): 0.8
relative viability ([3]; first compound 0.05 µM): 1.11
relative viability ([3]; first compound 0.1581 µM): 1
relative viability ([3]; first compound 0.5 µM): 0.947
relative viability ([4]; first compound 0.005 µM): 0.846
relative viability ([4]; first compound 0.01581 µM): 0.781
relative viability ([4]; first compound 0.05 µM): 0.926
relative viability ([4]; first compound 0.1581 µM): 0.989
relative viability ([4]; first compound 0.5 µM): 0.863

NCI-H1395
relative viability ([1]; first compound 0.02 µM): 0.781
relative viability ([1]; first compound 0.2 µM): 0.695
relative viability ([1]; first compound 0.6325 µM): 0.677
relative viability ([1]; first compound 2 µM): 0.769
relative viability ([2]; first compound 0.02 µM): 0.656
relative viability ([2]; first compound 0.06325 µM): 0.585
relative viability ([2]; first compound 0.2 µM): 0.651
relative viability ([2]; first compound 2 µM): 0.653

NCI-H1563
relative viability ([2]; first compound 0.02 µM): 0.49
relative viability ([2]; first compound 0.06325 µM): 0.542
relative viability ([2]; first compound 0.2 µM): 0.505
relative viability ([2]; first compound 2 µM): 0.511
relative viability ([3]; first compound 0.005 µM): 0.815
relative viability ([3]; first compound 0.01581 µM): 0.874
relative viability ([3]; first compound 0.05 µM): 0.803
relative viability ([3]; first compound 0.1581 µM): 0.875
relative viability ([3]; first compound 0.5 µM): 0.8
relative viability ([4]; first compound 0.005 µM): 0.778
relative viability ([4]; first compound 0.01581 µM): 0.771
relative viability ([4]; first compound 0.05 µM): 0.807
relative viability ([4]; first compound 0.1581 µM): 0.742
relative viability ([4]; first compound 0.5 µM): 0.752

A549
relative viability ([1]; first compound 0.02 µM): 0.289
relative viability ([1]; first compound 0.2 µM): 0.115
relative viability ([1]; first compound 0.6325 µM): 0.284
relative viability ([1]; first compound 2 µM): 0.293
relative viability ([3]; first compound 0.005 µM): 0.814
relative viability ([3]; first compound 0.01581 µM): 0.649
relative viability ([3]; first compound 0.05 µM): 0.639
relative viability ([3]; first compound 0.1581 µM): 0.708
relative viability ([3]; first compound 0.5 µM): 0.661

NCI-H2170
relative viability ([1]; first compound 0.02 µM): 0.454
relative viability ([1]; first compound 0.2 µM): 0.499
relative viability ([1]; first compound 0.6325 µM): 0.469
relative viability ([1]; first compound 2 µM): 0.495
relative viability ([2]; first compound 0.02 µM): 0.64
relative viability ([2]; first compound 0.06325 µM): 0.607
relative viability ([2]; first compound 0.2 µM): 0.542
relative viability ([2]; first compound 2 µM): 0.606
relative viability ([3]; first compound 0.005 µM): 1.07
relative viability ([3]; first compound 0.01581 µM): 0.824
relative viability ([3]; first compound 0.05 µM): 0.452
relative viability ([3]; first compound 0.1581 µM): 1.19
relative viability ([3]; first compound 0.5 µM): 0.227
